Data published in the NIST ThermoML archive (doi:10.1016/j.jct.2011.12.008).

Assay: xn = mol fraction of the nth substance listed
Details: 101 kPa, Liquid; for viscosity: Capillary tube (Ostwald / Ubbelohde) method; for mass density: Vibrating tube method

CCCCCCn1cc[n+](C)c1.F[B-](F)(F)F [1-hexyl-3-methylimidazolium tetrafluoroborate] + CC(C)CO
Details | mass density [kg/m3] | viscosity [mPa·s]
293.15 K, x1 = 0.3101 | 989.53 | 18.26
293.15 K, x1 = 0.4279 | 1031.42 | 26.88
293.15 K, x1 = 0.5606 | 1068.28 | 49.75
293.15 K, x1 = 0.6901 | 1097.67 | 84.38
293.15 K, x1 = 0.8327 | 1123.89 | 138.81
293.15 K, x1 = 1 | 1149.05 | 234.68
298.15 K, x1 = 0.3101 | 985.83 | 15.47
298.15 K, x1 = 0.4279 | 1027.83 | 23.01
298.15 K, x1 = 0.5606 | 1064.75 | 37.72
298.15 K, x1 = 0.6901 | 1094.14 | 66.81
298.15 K, x1 = 0.8327 | 1120.44 | 107.94
298.15 K, x1 = 1 | 1145.61 | 178.92
303.15 K, x1 = 0.1004 | 870.1 | 5.95
303.15 K, x1 = 0.151 | 902.53 | 7.454
303.15 K, x1 = 0.2009 | 931.08 | 8.374
303.15 K, x1 = 0.3101 | 982.2 | 12.94
303.15 K, x1 = 0.4279 | 1024.31 | 18.9
303.15 K, x1 = 0.5606 | 1061.3 | 32.1
303.15 K, x1 = 0.6901 | 1090.76 | 53.77
303.15 K, x1 = 0.8327 | 1117.15 | 84.55
303.15 K, x1 = 1 | 1142.3 | 136.15
308.15 K, x1 = 0.1004 | 866.28 | 4.975
308.15 K, x1 = 0.151 | 898.71 | 6.339
308.15 K, x1 = 0.2009 | 927.23 | 7.116
308.15 K, x1 = 0.3101 | 978.63 | 10.74
308.15 K, x1 = 0.4279 | 1020.8 | 15.81
308.15 K, x1 = 0.5606 | 1057.79 | 25.74
308.15 K, x1 = 0.6901 | 1087.32 | 45.36
308.15 K, x1 = 0.8327 | 1113.75 | 67.62
308.15 K, x1 = 1 | 1138.95 | 106.65
313.15 K, x1 = 0.1004 | 862.42 | 4.108
313.15 K, x1 = 0.151 | 894.93 | 5.202
313.15 K, x1 = 0.2009 | 923.74 | 6.184
313.15 K, x1 = 0.3101 | 975.11 | 9.102
313.15 K, x1 = 0.4279 | 1017.21 | 13.43
313.15 K, x1 = 0.5606 | 1054.27 | 21.67
313.15 K, x1 = 0.6901 | 1083.88 | 37.52
313.15 K, x1 = 0.8327 | 1110.33 | 52.79
313.15 K, x1 = 1 | 1135.59 | 83.13
318.15 K, x1 = 0.1004 | 858.54 | 3.188
318.15 K, x1 = 0.151 | 891.18 | 4.388
318.15 K, x1 = 0.2009 | 920.15 | 5.281
318.15 K, x1 = 0.3101 | 971.5 | 7.758
318.15 K, x1 = 0.4279 | 1013.64 | 11.45
318.15 K, x1 = 0.5606 | 1050.78 | 18.8
318.15 K, x1 = 0.6901 | 1080.45 | 31.4
318.15 K, x1 = 0.8327 | 1106.94 | 45.07
318.15 K, x1 = 1 | 1132.22 | 69.13
323.15 K, x1 = 0.1004 | 854.62 | 2.993
323.15 K, x1 = 0.151 | 887.3 | 3.765
323.15 K, x1 = 0.2009 | 916.37 | 4.555
323.15 K, x1 = 0.3101 | 967.87 | 6.719
323.15 K, x1 = 0.4279 | 1010.02 | 9.919
323.15 K, x1 = 0.5606 | 1047.3 | 15.64
323.15 K, x1 = 0.6901 | 1077.03 | 26.31
323.15 K, x1 = 0.8327 | 1103.61 | 36.01
323.15 K, x1 = 1 | 1128.88 | 56.74
328.15 K, x1 = 0.1004 | 850.65 | 2.586
328.15 K, x1 = 0.151 | 883.51 | 3.266
328.15 K, x1 = 0.2009 | 912.52 | 3.949
328.15 K, x1 = 0.3101 | 964.12 | 5.855
328.15 K, x1 = 0.4279 | 1006.35 | 8.616
328.15 K, x1 = 0.5606 | 1043.79 | 13.62
328.15 K, x1 = 0.6901 | 1073.6 | 21.88
328.15 K, x1 = 0.8327 | 1100.2 | 29.92
328.15 K, x1 = 1 | 1125.5 | 48.36
333.15 K, x1 = 0.1004 | 846.65 | 2.21
333.15 K, x1 = 0.151 | 879.73 | 2.847
333.15 K, x1 = 0.2009 | 908.64 | 3.475
333.15 K, x1 = 0.3101 | 960.36 | 5.18
333.15 K, x1 = 0.4279 | 1002.74 | 7.6
333.15 K, x1 = 0.5606 | 1040.26 | 11.92
333.15 K, x1 = 0.6901 | 1070.21 | 18.98
333.15 K, x1 = 0.8327 | 1096.86 | 26.84
333.15 K, x1 = 1 | 1122.14 | 43.01
338.15 K, x1 = 0.1004 | 842.59 | 1.853
338.15 K, x1 = 0.151 | 875.79 | 2.526
338.15 K, x1 = 0.2009 | 904.74 | 3.056
338.15 K, x1 = 0.3101 | 956.56 | 4.566
338.15 K, x1 = 0.4279 | 999.08 | 6.374
338.15 K, x1 = 0.5606 | 1036.78 | 10.1
338.15 K, x1 = 0.6901 | 1066.82 | 15.78
338.15 K, x1 = 0.8327 | 1093.56 | 23.43
338.15 K, x1 = 1 | 1118.8 | 37.15
